# Source: a melting point compilation (Tetko et al.)
row,Compound,melting point
1,Cc1nnc(-c2cccc(C#N)c2)[nH]1,173 to 175 °C
2,O=C(O)c1ccc(C(F)(F)C(F)(F)F)cc1,152 to 154 °C
3,CCOC(=O)c1ccc(-c2ccc(C=O)o2)cc1,110 to 112 °C
4,Nc1ncc(Cc2cccc(C(=O)O)c2)s1,217 to 219 °C
5,N#Cc1ccc(S(N)(=O)=O)cc1C(F)(F)F,195 to 197 °C
6,Nc1nccc(-c2cccnc2)n1,188 to 190 °C
7,NC(=O)CN1CCC(N)CC1,74 to 76 °C
8,O=C(O)c1cccc(NC(=O)C2CCCCC2)c1,228 to 230 °C
9,CS(=O)(=O)NC1CCCNC1 (stereo unspecified),123 to 125 °C
10,ICc1cccc2cccnc12,79 to 81 °C
11,CCCCN1Cc2ccc(N)cc2C1,62 to 64 °C
12,COc1ccc(NCC(=O)NN)cc1,94 to 98 °C
13,O=C1COc2cc(Br)ccc2N1,192 to 194 °C
14,Nc1nc2c(Cl)c(Cl)ccc2s1,129 to 131 °C
15,COc1ccc2nc(C)cc(O)c2c1,284 to 286 °C
16,[N-]=[N+]=NCC(=O)NCc1ccccc1,39 to 41 °C
17,Cc1ccc(C(C)NC(=O)CCl)cc1C (stereo unspecified),196 to 198 °C
18,Nc1ccc(CN2CCOC2=O)cc1,99 to 101 °C
19,O=C(O)c1c2c(nc3ccccc13)C(=Cc1ccccc1Cl)CCC2,98 to 100 °C

row,Compound,melting point
1,Nc1nc(-c2ccc(OCc3ccccc3)cc2)cs1,160 to 162 °C
2,CC(C)COc1ccc(C2(C(=O)O)CCC2)cc1,105 to 107 °C
3,OCc1nc(Cc2ccc(F)cc2)no1,53 to 55 °C
4,OCCNc1ccc(Br)cc1,80 to 82 °C
5,O=C(O)c1ccn(-c2ccccc2)n1,138 to 140 °C
6,Cc1cc(N)ncn1,186 to 188 °C
7,Cc1nc(-c2ccc(C)c(NC(=O)CCl)c2)n[nH]1,297 to 299 °C
8,O=[N+]([O-])CC(c1ccco1)c1c(-c2ccccc2)[nH]c2ccccc12 (stereo unspecified),127 to 129 °C
9,NCCCc1n[nH]c(N)c1-c1nc2ccccc2s1,313 to 315 °C
10,CC(O)C(NS(=O)(=O)c1cccs1)C(=O)O (stereo unspecified),183 to 185 °C
11,COc1ccc(-n2c(C)cc(C=O)c2C)cc1,133 to 135 °C
12,CC(C)=C(C)C(=O)O,68 to 70 °C
13,CNC1CCCCNC1=O (stereo unspecified),234 to 236 °C
14,O=C(O)C1C2C3CCC(C3)C12 (stereo unspecified),96 to 98 °C
15,Nc1ccc(Br)cc1O,138 to 140 °C
16,N#CCC(=O)c1ccc(F)c(F)c1,67 to 69 °C
17,CCOc1ccc(Nc2ncccc2C(=O)O)cc1,189 to 191 °C
18,O=C(O)c1ccc(Cl)c(I)c1,212 to 214 °C
19,Cc1nc2nc(Br)ccc2o1,76 to 78 °C

row,Compound,melting point
1,CCOc1cc(C=O)ccc1OCC(F)(F)F,38 to 40 °C
2,Cc1c(Cl)cccc1NC(=O)CCl,71 to 74 °C
3,CC(NC(=O)CCl)c1ccc2ccccc2c1 (stereo unspecified),201 to 203 °C
4,O=C(O)CC1CCC(c2ccccc2)CC1 (stereo unspecified),83 to 85 °C
5,Nc1ccc(N2CCOCC2)c(S(=O)(=O)Nc2ccc(Cl)cc2)c1,236 to 238 °C
6,c1ccc(-c2nnco2)nc1,224 to 226 °C
7,CC(NS(=O)(=O)c1cccc(C(=O)O)c1)c1ccccc1 (stereo unspecified),149 to 151 °C
8,NS(=O)(=O)N1CCOCC1,161 to 163 °C
9,Nc1cnccc1-c1cccc(F)c1,66 to 68 °C
10,O=C(NCc1ccco1)c1cccc(CCl)c1,74 to 76 °C
11,Cc1nn(-c2cccc(C(F)(F)F)c2)c(C)c1C(=O)C(=O)O,191 to 193 °C
12,CN(C)C(C(=O)O)c1cc(Cl)cc(Cl)c1 (stereo unspecified),170 to 172 °C
13,CC(C)C(NS(=O)(=O)c1ccccc1F)C(=O)O (stereo unspecified),159 to 161 °C
14,NS(=O)(=O)c1cc(Br)cnc1Cl,119 to 121 °C
15,O=C(O)C1CSC(c2ccc(Cl)s2)N1 (stereo unspecified),149 to 151 °C
16,Clc1nc(-c2ccsc2)nc2ccccc12,122 to 124 °C
17,O=C(O)c1cc([N+](=O)[O-])ccc1Sc1nnnn1-c1ccccc1,218 to 220 °C
18,Cc1ncc(-c2ccc(N)cc2)o1,126 to 128 °C
